Reference: patent US20260034119A1, “5-METHOXY-N,N-[…][…], THEIR […], AND METHODS FOR TREATMENT OF NEUROLOGICAL, […], AND SUBSTANCE USE DISORDERS” (priority 2023, published 2026)

Assays:
[1] = Mouse plasma protein binding; format: in vitro ADME; conditions: for fraction unbound: mouse, plasma
[2] = test system: C57BL/6J mice; test: Sucrose preference test after chronic social defeat stress; format: in vivo, mouse; conditions: stressed mice
Source text: The sucrose preference test is a volitional two-bottle choice procedure in which mice are given the choice between consuming water and a 1% sucrose solution. This paradigm has been used extensively to assess the effects of stress-induced anhedonia. On day 10 of CSDS mice were individually housed and habituated to two bottles containing just water. Twenty-four hours later, following the SI test, one bottle was replaced with a 1% sucrose solution (w/v) made with water from the animal vivarium. Mice had ad libitum overnight access to both bottles and preference for sucrose over water was calculated as follows: [sucrose/(sucrose+water)*100]. Data were averaged from two independent experiments. A total of 27 mice were administered vehicle (9 control, 18 stress), 27 received 4-F, 5-MeO-PyrT (9 control, 18 stress), 15 received WAY-100635 (5 control, 10 stress), and 15 received 4-F, 5-MeO-PyrT+WAY-100635 (5 control, 10 stress). More animals were used for the stressed groups due to the inherent resilience of mice to social defeat stress (Krishnan et al. 2007). Analysis of different treatment conditions of control and stressed animals was done in GraphPad Prism using two-way ANOVA.

[3] = target: T1, 5-HT1A A365N (Homo sapiens, UniProt P08908, A365N); test: Gi1 BRET at mutant 5-HT1A A365N; format: cell-based; conditions: Gi1 BRET, 5-HT1A A365N^6.55
T1 construct: expressed in transfected cells; host or cells: HEK293-T
T1 sequence (P08908 1-422 A365N): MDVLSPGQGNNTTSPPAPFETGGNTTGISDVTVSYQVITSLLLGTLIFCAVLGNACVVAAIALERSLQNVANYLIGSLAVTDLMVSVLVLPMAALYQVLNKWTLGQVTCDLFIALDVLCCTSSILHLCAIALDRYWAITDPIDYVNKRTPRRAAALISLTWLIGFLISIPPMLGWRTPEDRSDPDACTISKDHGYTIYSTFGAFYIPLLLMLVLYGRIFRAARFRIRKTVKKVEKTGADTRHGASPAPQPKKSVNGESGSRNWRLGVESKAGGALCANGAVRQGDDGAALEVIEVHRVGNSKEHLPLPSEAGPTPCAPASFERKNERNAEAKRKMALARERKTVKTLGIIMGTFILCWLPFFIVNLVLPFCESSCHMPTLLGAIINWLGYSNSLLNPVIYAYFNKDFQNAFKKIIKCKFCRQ

[4] = target: T2, OCT2 (Homo sapiens, UniProt O15244); test: OCT2 uptake inhibition; format: cell-based; conditions: compared with 5-HT1A
T2 construct: expressed in transfected cells; host or cells: Flp-In T-Rex cell line (ThermoFisher), tetracycline-induced
T2 sequence (O15244 1-555): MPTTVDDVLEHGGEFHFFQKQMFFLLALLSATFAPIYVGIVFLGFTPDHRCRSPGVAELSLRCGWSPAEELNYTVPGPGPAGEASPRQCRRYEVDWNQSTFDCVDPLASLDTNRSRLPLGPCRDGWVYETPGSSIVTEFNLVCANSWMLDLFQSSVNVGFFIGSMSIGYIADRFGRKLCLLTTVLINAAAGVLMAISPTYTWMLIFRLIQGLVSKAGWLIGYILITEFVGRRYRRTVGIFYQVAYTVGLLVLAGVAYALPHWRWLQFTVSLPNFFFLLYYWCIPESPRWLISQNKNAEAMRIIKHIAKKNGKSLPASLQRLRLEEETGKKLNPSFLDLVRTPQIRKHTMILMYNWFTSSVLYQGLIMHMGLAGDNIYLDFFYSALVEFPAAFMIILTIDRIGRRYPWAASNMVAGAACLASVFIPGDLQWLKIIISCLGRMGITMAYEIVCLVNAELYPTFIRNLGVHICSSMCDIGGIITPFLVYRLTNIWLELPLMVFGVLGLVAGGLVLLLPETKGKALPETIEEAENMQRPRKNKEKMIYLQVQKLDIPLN
Method: Inducible cell lines stably expressing OCT1, OCT2, or PMAT were generated using the Flp-In T-Rex cell line (ThermoFisher) according to manufacturer recommendations. Cells were maintained in DMEM supplemented with 10% FBS, 100 μg/ml hygromycin B (GoldBio), and 10 μg/ml blasticidin (GoldBio). To measure uptake inhibition, cells were seeded into poly-L-lysine coated clear-bottom 384-well plates at a density of 25,000 cells per well in DMEM containing 10% FBS and 2 μg/ml of tetracycline (Sigma) to induce transporter expression. […] Cells were incubated with drug for 30 min at 37° C. Fluorescent substrate was then added to the cells. […] Cells were incubated with respective substrates for an hour at 37° C. OCT2 cells were read directly in a Victor NIVO plate reader using 495 nm excitation and 580 emission filter for 0.1 s. OCT1 and PMAT cells were washed in HBSS supplemented with 20 mM HEPES pH 7.4 before reading in a Victor NIVO plate reader using 435 nm excitation and 480 nm emission filter for 0.1 s.

[5] = target: T3, SERT (Homo sapiens, UniProt P31645); test: Serotonin transporter (SERT) uptake inhibition; format: cell-based; conditions: compared with 5-HT1A
T3 construct: expressed in transfected cells; host or cells: HEK293-T
Method: The uptake inhibition assay was performed the following day. […] To each well, 30 μl of HBSS containing 20 mM HEPES, 0.1% BSA, and 0.01% ascorbic acid and 15 μl of 3× drug dilutions were added. Cells were then incubated at 37° C. for 45 min. A final concentration of 10 μM FFN246 (Aobious) (Henke et al. 2018) was added to each well, and cells were incubated for an additional hour at 37° C. […] Data was plotted as a function of drug concentration, normalized to % citalopram inhibition, and analyzed using “log(inhibitor) vs. response” in GraphPad Prism 8.0.

[6] = target: 5-HT1A (Homo sapiens, UniProt P08908); test: BRET signaling assay: 5-HT1A-mediated activation of heterotrimeric Gi1 (TRUPATH, HEK293-T)
[7] = test system: mice; test: Open field locomotor activity; format: in vivo, mouse
[8] = Human plasma protein binding; format: in vitro ADME; conditions: for fraction unbound: human, plasma
[9] = read-out: % Bound Mean (converted)
[10] = replicate R1, read-out: % Bound R1 (converted)
[11] = replicate R2, read-out: % Bound R2 (converted)

Chain of 5-HT1A (P08908 whole entry): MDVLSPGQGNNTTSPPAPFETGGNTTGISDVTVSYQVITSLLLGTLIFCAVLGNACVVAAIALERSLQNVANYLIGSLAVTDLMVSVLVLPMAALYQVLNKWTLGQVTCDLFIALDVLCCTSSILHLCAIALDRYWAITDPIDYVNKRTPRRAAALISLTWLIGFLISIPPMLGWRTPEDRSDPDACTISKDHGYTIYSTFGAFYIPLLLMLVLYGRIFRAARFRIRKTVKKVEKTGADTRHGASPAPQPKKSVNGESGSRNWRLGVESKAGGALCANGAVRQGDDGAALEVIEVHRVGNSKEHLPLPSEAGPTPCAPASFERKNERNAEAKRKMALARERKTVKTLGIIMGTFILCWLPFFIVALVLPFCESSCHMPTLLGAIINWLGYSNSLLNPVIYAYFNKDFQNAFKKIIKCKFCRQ
T3 sequence (P31645 whole entry, species assumed): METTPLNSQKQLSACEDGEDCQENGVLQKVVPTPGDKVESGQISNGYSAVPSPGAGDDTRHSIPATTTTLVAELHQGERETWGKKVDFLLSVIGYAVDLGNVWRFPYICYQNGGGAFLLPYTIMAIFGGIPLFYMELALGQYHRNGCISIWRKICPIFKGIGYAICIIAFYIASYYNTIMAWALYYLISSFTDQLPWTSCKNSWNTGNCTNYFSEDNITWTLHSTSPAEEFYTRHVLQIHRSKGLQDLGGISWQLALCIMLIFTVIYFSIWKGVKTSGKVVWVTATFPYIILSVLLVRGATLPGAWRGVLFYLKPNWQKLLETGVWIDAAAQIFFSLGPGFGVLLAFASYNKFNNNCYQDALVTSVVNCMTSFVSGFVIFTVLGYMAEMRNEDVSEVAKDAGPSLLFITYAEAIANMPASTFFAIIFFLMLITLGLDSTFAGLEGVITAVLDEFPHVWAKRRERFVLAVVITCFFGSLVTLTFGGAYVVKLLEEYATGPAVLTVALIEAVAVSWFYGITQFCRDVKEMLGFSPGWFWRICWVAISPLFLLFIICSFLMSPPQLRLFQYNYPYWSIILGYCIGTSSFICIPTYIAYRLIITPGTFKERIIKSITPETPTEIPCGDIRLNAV

SMILES: COc1ccc2[nH]cc(CCN3CCCC3)c2c1F [4-F, 5-MeO-PyrT, 4-Fluoro, 5-methoxypyrrolidinyl-tryptamine]
- recovery [1]: 84.7%
- % Compound remaining at 4 h ([1]; 4 h): 105.6%
- fraction unbound [1, 9]: 0.626
- fraction unbound ([1]; read-out: % Unbound): 0.626
- fraction unbound ([1]; read-out: fu): 0.626
- fraction unbound [1, 10]: 0.68
- fraction unbound [1, 11]: 0.573
- effect on sucrose preference under WAY-100635 co-administration [2]: reversed the effects
- sucrose preference ([2]; relative to vehicle-treated animals): significantly increased sucrose preference
- pEC50 [3]: (8.29,
- EC50 ([3]; read-out: EC50): 5.08 nM
- activity at other neurotransmitter transporters (OCT2) [4]: substantially lower activity
- activity at the serotonin transporter [5]: substantially lower activity
- Emax, 5-HT1A-mediated activation of Gi1 (BRET) [6]: 102.8 % of 5-HT
- pEC50 ([6]; Gi1 BRET, 5-HT1A WT): (9.43,
- EC50 ([6]; read-out: Gi BRET EC50): 0.37 nM
- lowest dose producing suppression of locomotion ([7]; mice, s.c.): 0.03 mg/kg
- sedative effects after WAY-100635 pretreatment ([7]; open field, WAY-100635 1 mg/kg s.c. 15 min prior, compound 1 mg/kg s.c.): negates the sedative effects
- recovery [8]: 81.8%
- % Compound remaining at 4 h ([8]; 4 h): 97.9%
- fraction unbound [8, 9]: 0.74
- fraction unbound ([8]; read-out: % Unbound): 0.74
- fraction unbound ([8]; read-out: fu): 0.74
- fraction unbound [8, 10]: 0.778
- fraction unbound [8, 11]: 0.702
